This passage reports MIC and Ratio results from ChEMBL document CHEMBL4229518, “New β-lactam - Tetramic acid hybrids show promising antibacterial activities” (Bioorg Med Chem Lett, 2018).

SMILES strings stand for the structures. ≈ marks a conversion by molar mass, not a printed value. A value given as a limit tells only on which side of the number the result lay.

The first test deals with Staphylococcus aureus. Nature of the test: Antimicrobial activity against methicillin-susceptible Staphylococcus aureus NRS70 after 18 to 20 hrs by microbroth dilution method. The format is functional.
Details: not given
In general terms: Dilution methods test growth across graded concentrations, often in twofold steps.
Usually MIC stands for the smallest concentration in the dilution series that meets the test's criterion for growth inhibition. Compound `C=CC1=C(C(=O)O)N2C(=O)[C@@H](NC(=O)CCNC(=O)C3=C(O)C(CC(C)C)NC3=O)[C@H]2SC1` (stereo not given in full) yielded a minimal inhibitory concentration (MIC) of 3.13 µg/mL (≈ 6.54 µM).

The next test concerns Staphylococcus aureus. Nature of the test: Potency index, ratio of […] MIC to compound MIC for methicillin-resistant Staphylococcus aureus NRS70. The format is functional.
Details: not given
With `C=CC1=C(C(=O)O)N2C(=O)[C@@H](NC(=O)CCNC(=O)C3=C(O)C(CC(C)C)NC3=O)[C@H]2SC1` (stereo not given in full), the Ratio is given as 64.

The next test has as its system Bacillus anthracis. Nature of the test: Antimicrobial activity against Bacillus anthracis Sterne 34F2 after 18 to 20 hrs by microbroth dilution method. The format is functional.
Details: not given
Compound `C=CC1=C(C(=O)O)N2C(=O)[C@@H](NC(=O)CCNC(=O)C3=C(O)C(CC(C)C)NC3=O)[C@H]2SC1` (stereo not given in full) came in with an MIC of 6.25 µg/mL (≈ 13.1 µM).

The next test concerns Stenotrophomonas maltophilia. Nature of the test: Antimicrobial activity against Stenotrophomonas maltophilia ATCC 700475 after 18 to 20 hrs by microbroth dilution method. The test is classed as functional.
Details: not given
For the compound `C=CC1=C(C(=O)O)N2C(=O)[C@@H](NC(=O)CCNC(=O)C3=C(O)C(CC(C)C)NC3=O)[C@H]2SC1` (stereo not given in full), the MIC was over 200 µg/mL.

The subject of another test is Streptococcus pneumoniae. Description: Antimicrobial activity against Streptococcus pneumoniae R6 after 18 to 20 hrs by microbroth dilution method. The format is functional.
Details: not given
For the compound `C=CC1=C(C(=O)O)N2C(=O)[C@@H](NC(=O)CCNC(=O)C3=C(O)C(CC(C)C)NC3=O)[C@H]2SC1` (stereo not given in full), the minimum inhibitory concentration (MIC) is 6.25 µg/mL (≈ 13.1 µM).

Another test concerns Escherichia coli. Description: Antimicrobial activity against Escherichia coli BW25113 after 18 to 20 hrs by microbroth dilution method.
Details: not given
The format is functional.
`C=CC1=C(C(=O)O)N2C(=O)[C@@H](NC(=O)CCNC(=O)C3=C(O)C(CC(C)C)NC3=O)[C@H]2SC1` (stereo not given in full): the MIC is over 200 µg/mL.

The subject of another test is Staphylococcus aureus. Nature of the test: Potency index, ratio of […] MIC to compound MIC for […] Staphylococcus aureus ATCC 29213. The test is classed as functional.
Details: not given
Turning to `C=CC1=C(C(=O)O)N2C(=O)[C@@H](NC(=O)CCNC(=O)C3=C(O)C(CC(C)C)NC3=O)[C@H]2SC1` (stereo not given in full), the Ratio is recorded as 64.

A further test relates to Staphylococcus aureus. Description: Potency index, ratio of cefaclor MIC to compound MIC for […] Staphylococcus aureus ATCC 29213. The test is classed as functional.
Details: not given
`C=CC1=C(C(=O)O)N2C(=O)[C@@H](NC(=O)CCNC(=O)C3=C(O)C(CC(C)C)NC3=O)[C@H]2SC1` (stereo not given in full): the Ratio amounted to 32.

A further test has as its system Pseudomonas aeruginosa. Nature of the test: Antimicrobial activity against Pseudomonas aeruginosa PAO1 after 18 to 20 hrs by microbroth dilution method. The test is classed as functional.
Details: not given
In turn, `C=CC1=C(C(=O)O)N2C(=O)[C@@H](NC(=O)CCNC(=O)C3=C(O)C(CC(C)C)NC3=O)[C@H]2SC1` (stereo not given in full) came in with an MIC of over 200 µg/mL.

The next test relates to Enterobacter cloacae. Nature of the test: Antimicrobial activity against Enterobacter cloacae ATCC 13047 after 18 to 20 hrs by microbroth dilution method. The settings on record: subsp. cloacae ATCC 13047. The test is classed as functional.
Regarding `C=CC1=C(C(=O)O)N2C(=O)[C@@H](NC(=O)CCNC(=O)C3=C(O)C(CC(C)C)NC3=O)[C@H]2SC1` (stereo not given in full), the MIC is over 200 µg/mL.

For the next test, the system named is Proteus mirabilis. Description: Antimicrobial activity against Proteus mirabilis ATCC 25933 after 18 to 20 hrs by microbroth dilution method. The format is functional.
Details: not given
For `C=CC1=C(C(=O)O)N2C(=O)[C@@H](NC(=O)CCNC(=O)C3=C(O)C(CC(C)C)NC3=O)[C@H]2SC1` (stereo not given in full), it took 100 µg/mL (≈ 209 µM) to inhibit growth (MIC).

A further test has as its system Staphylococcus aureus. Nature of the test: Potency index, ratio of cefaclor MIC to compound MIC for methicillin-resistant Staphylococcus aureus NRS70. The format is functional.
Details: not given
With `C=CC1=C(C(=O)O)N2C(=O)[C@@H](NC(=O)CCNC(=O)C3=C(O)C(CC(C)C)NC3=O)[C@H]2SC1` (stereo not given in full), the Ratio is recorded as 32.

A further test has as its system Staphylococcus aureus. Nature of the test: Antimicrobial activity against methicillin-susceptible Staphylococcus aureus ATCC 29213 after 18 to 20 hrs by microbroth dilution method.
Details: not given
The test is classed as functional.
`C=CC1=C(C(=O)O)N2C(=O)[C@@H](NC(=O)CCNC(=O)C3=C(O)C(CC(C)C)NC3=O)[C@H]2SC1` (stereo not given in full) gave a minimal inhibitory concentration (MIC) of 3.13 µg/mL (≈ 6.54 µM).

In a further test the test system is Bacillus subtilis. Nature of the test: Antimicrobial activity against Bacillus subtilis ATCC 23857 after 18 to 20 hrs by microbroth dilution method. The format is functional.
Details: not given
In the case of `C=CC1=C(C(=O)O)N2C(=O)[C@@H](NC(=O)CCNC(=O)C3=C(O)C(CC(C)C)NC3=O)[C@H]2SC1` (stereo not given in full), the MIC turned out to be 6.25 µg/mL (≈ 13.1 µM).

The next test concerns Klebsiella pneumoniae. Description: Antimicrobial activity against Klebsiella pneumoniae ATCC 33495 after 18 to 20 hrs by microbroth dilution method. The test is classed as functional.
Details: not given
`C=CC1=C(C(=O)O)N2C(=O)[C@@H](NC(=O)CCNC(=O)C3=C(O)C(CC(C)C)NC3=O)[C@H]2SC1` (stereo not given in full) returned a minimum inhibitory concentration (MIC) of over 200 µg/mL.

Another test deals with Streptococcus pyogenes. Nature of the test: Antimicrobial activity against Streptococcus pyogenes ATCC 700294 after 18 to 20 hrs by microbroth dilution method. The settings on record: M1 GAS. The test is classed as functional.
As for `C=CC1=C(C(=O)O)N2C(=O)[C@@H](NC(=O)CCNC(=O)C3=C(O)C(CC(C)C)NC3=O)[C@H]2SC1` (stereo not given in full), the minimal inhibitory concentration (MIC) is 12.5 µg/mL (≈ 26.1 µM).

The subject of another test is Enterococcus faecalis. Nature of the test: Antimicrobial activity against Enterococcus faecalis ATCC 33186 after 18 to 20 hrs by microbroth dilution method. The format is functional.
Details: not given
`C=CC1=C(C(=O)O)N2C(=O)[C@@H](NC(=O)CCNC(=O)C3=C(O)C(CC(C)C)NC3=O)[C@H]2SC1` (stereo not given in full) yielded a minimum inhibitory concentration (MIC) of over 200 µg/mL.

The next test has as its system Escherichia coli. Nature of the test: Antimicrobial activity against tolC deficient Escherichia coli JW5503-1 after 18 to 20 hrs by microbroth dilution method. The format is functional.
Details: not given
Compound `C=CC1=C(C(=O)O)N2C(=O)[C@@H](NC(=O)CCNC(=O)C3=C(O)C(CC(C)C)NC3=O)[C@H]2SC1` (stereo not given in full) yielded an MIC of over 200 µg/mL.

The subject of a further test is Bacillus cereus. Description: Antimicrobial activity against Bacillus cereus ATCC 14579 after 18 to 20 hrs by microbroth dilution method. The format is functional.
Details: not given
Regarding `C=CC1=C(C(=O)O)N2C(=O)[C@@H](NC(=O)CCNC(=O)C3=C(O)C(CC(C)C)NC3=O)[C@H]2SC1` (stereo not given in full), the MIC is over 200 µg/mL.

The next test concerns Acinetobacter baumannii. Description: Antimicrobial activity against Acinetobacter baumannii ATCC 19606 after 18 to 20 hrs by microbroth dilution method. The format is functional. The settings on record: ATCC 19606 = CIP 70.34 = JCM 6841.
`C=CC1=C(C(=O)O)N2C(=O)[C@@H](NC(=O)CCNC(=O)C3=C(O)C(CC(C)C)NC3=O)[C@H]2SC1` (stereo not given in full) displayed a minimal inhibitory concentration (MIC) of over 200 µg/mL.
